Patent publication US9132106B2, “Synergistic ophthalmic compositions for disinfecting contact lenses” (Abbott Medical Optics Inc., priority 2013, dated 2015)

System: Candida albicans ATCC 10231
Assay: Antimicrobial activity, 6 hr log kill of C. albicans
Assay type: cell-based
Protocol: The test procedure for testing antimicrobial activity against specified test organisms is as follows: A 10-mL aliquot of test sample was transferred into a single polypropylene test tube. Sterile Dulbecco's Phosphate-Buffered Saline with 0.05 w/v % Polysorbate 80 (DPBST) was transferred into a separate polypropylene test tube and used as a control. All samples and control were stored at 20-25° C. throughout the duration of the test. Test cultures of specified test organisms were cultured and prepared in the conventional manner using Saboraud Dextrose Agar (SDA) as the growth medium. The challenge organism inoculum was adjusted to approximately 1×10e7-1×10e8 CFU/mL in DPBST. Fifty μL of culture inoculum was added to 10.0 mL of each test sample and control, so that the final inoculum level was in the range of 1×10e5 to 1×10e6 CFU (colony forming units) per mL of specified test organism. Contact time intervals for testing activity against the specified test organism were typically within 4 or 6 hours, e.g., 15 minutes, 30 minutes, 45 minutes, 1 hour, 2 hours, 4 hours and 6 hours, to remain within the intended product label instructions for maximum contact lens soak time.
Following incubation, the number of surviving organisms was enumerated by serial dilution and culture on SDA medium. An appropriate neutralizing disinfectant medium was used for performing serial dilutions (e.g. Letheen Neutralizing Broth containing 0.5% Polysorbate 80 media—LetheenT80). Additionally, the numbers of colony-forming-units (CFU) were counted and the Log 10 reduction in viable number calculated for test solutions based on the initial time zero challenge inoculum in the control solution.

[1] = Table II formula, 6 hour soaking

## CCCCC(CC)CNC(=N)NC(=N)NCCCCCCNC(=N)NC(=N)NCC(CC)CCCC (stereo not drawn) [alexidine]
1.05 ppm alexidine, 6 hours, C. albicans
  log kill from alexidine alone in the same formula: about 1.4 log
Alexidine at 1.00 ppm in Table 1 formula, 6 hour soaking
  log kill of C. albicans (FIG. 1): 1.3 log

## [H]/N=C(\N/C(=N/[H])NCCCCCCNC(=N)NC(=N)Nc1ccc(Cl)cc1)Nc1ccc(Cl)cc1 [chlorhexidine]
5.00 ppm chlorhexidine, 6 hours, C. albicans
  log kill from chlorhexidine alone in the same formula: about 0.5 log
[1]
  chlorhexidine concentration needed to achieve a 2-log kill against C. albicans (FIG. 2): > 12 ppm
  chlorhexidine concentration needed to achieve a 3-log kill against C. albicans (FIG. 2): > 15 ppm

## poly[(dimethyliminio)-2-butene-1,4-diyl chloride], α-[4-[tris(2-hydroxyethyl) ammonio]-2-butenyl]-Ω-[tris(2-hydroxyethyl)ammonio]-dichloride [PQ-1]
In the presence of 0.65% trisodium citrate dihydrate
  effect of PQ-1 on C. albicans (in words): little effect
